Test results: US5223421A, “Identification of methionine Nα-acetyltransferase” (The General Hospital Corporation, priority 1990, dated 1993)
“Also recorded” adds a separate entry of the source. Like-named read-outs stand apart in the source and are kept apart here. Ends that are not written are not given here.

What was measured:
[1] = target: T1, AAA1 N^α -acetyltransferase (N^α -AT) (Saccharomyces cerevisiae, UniProt P07347+P12945); assay: Relative activity of N^α -AT for N^α -acetylation of synthetic peptides; assay type: biochemical; settings: Table 6, influence of the amino terminal residue
T1 sequence (P12945 2-854 limits assumed): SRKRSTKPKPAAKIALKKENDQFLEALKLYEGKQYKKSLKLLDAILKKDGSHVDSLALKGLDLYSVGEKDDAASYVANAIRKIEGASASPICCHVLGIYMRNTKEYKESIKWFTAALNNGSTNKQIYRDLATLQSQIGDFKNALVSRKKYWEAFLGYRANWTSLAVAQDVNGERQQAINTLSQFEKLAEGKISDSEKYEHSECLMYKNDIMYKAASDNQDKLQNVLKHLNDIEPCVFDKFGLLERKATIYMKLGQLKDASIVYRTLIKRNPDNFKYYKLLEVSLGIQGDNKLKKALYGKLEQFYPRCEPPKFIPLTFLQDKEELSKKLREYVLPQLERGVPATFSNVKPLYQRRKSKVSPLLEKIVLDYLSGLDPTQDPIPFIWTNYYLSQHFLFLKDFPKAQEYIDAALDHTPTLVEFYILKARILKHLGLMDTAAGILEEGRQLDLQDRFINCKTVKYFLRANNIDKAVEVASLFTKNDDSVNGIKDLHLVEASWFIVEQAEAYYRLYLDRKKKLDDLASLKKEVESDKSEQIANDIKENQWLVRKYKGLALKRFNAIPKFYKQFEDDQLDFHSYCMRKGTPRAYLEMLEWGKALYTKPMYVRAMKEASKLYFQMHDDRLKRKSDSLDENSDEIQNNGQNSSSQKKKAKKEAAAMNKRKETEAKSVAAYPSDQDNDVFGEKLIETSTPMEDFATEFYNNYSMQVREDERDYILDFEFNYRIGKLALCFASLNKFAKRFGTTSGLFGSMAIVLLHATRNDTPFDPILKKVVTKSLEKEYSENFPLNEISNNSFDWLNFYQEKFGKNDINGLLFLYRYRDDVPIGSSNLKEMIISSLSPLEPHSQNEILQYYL
T1 sequence (P07347 1-238): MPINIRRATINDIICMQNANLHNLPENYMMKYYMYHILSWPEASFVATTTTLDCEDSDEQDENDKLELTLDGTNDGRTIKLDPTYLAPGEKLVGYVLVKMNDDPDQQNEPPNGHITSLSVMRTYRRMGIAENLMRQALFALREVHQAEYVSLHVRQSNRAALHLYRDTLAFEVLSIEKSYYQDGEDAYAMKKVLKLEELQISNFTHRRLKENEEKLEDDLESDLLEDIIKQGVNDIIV
Method: N^α -acetylt[…] was determined as previously described [Lee et al., J. Biol. Chem. 263:14948-14955 (1988)]. Aliquots of the lysate or chromatographic fractions were added to 1.5 ml Eppendorf tubes containing a reaction mixture of 50 mM HEPES, pH 7.4, 150 mM KCl, 1 mM DTT, 25 μM [^3 H] acetyl coenzyme A (0.5 μCi) and 50 μM synthetic peptide with an adjusted final volume of 100 μl. The assay mixture was incubated at 30° C. for 30 min. The reaction was stopped by adding 17 μl of 0.5M acetic acid and chilled in an ice bath. The reaction samples were filtered through SP membrane discs (Cuno) (previously pre-swollen in 0.5M acetic acid), and then washed three times with 1 ml of 0.5M acetic acid on a Millipore 1225 sampling manifold. The partially dried membranes were placed in scintillation cocktail and counted with a Beckman LS 3801 scintillation counter. One unit of activity was defined as the amount of enzyme able to transfer 1 pmol of [^3 H] acetyl group from [^3 H] acetyl coenzyme A to synthetic peptide per min under standard enzyme assay conditions defined above.
In order to compare the relative specificity and activity of the methionine N^α -acetylt[…] (M-N^α -AT) of the present invention with the specificity and activity of the AAA1 N^α -acetyltransferase (N^α -AT) of Lee, F.-J. S., et al., J. Bacteriol. 171, (1989), U.S. Patent Application of John A. Smith, and Fang-Jen S. Lee, filed Oct. 25, 1989, entitled "ISOLATION OF STRAINS OF SAC[…] ALTERED N^α -ACETYLT[…]" (which references have been incorporated herein by reference) synthetic peptides were prepared. These peptides were assessed for their ability to serve as substrates for the two enzymes. In Table 6, the effect of the amino terminal amino acid on activity is investigated; in Table 7, the effect of the penultimate amino terminal amino acid on activity is investigated.

[2] = system: methionine N^α -acetyltransferase from S. cerevisiae; assay type: biochemical, Saccharomyces cerevisiae; settings: for effect of ion or salt on M-N^α AT activity: concentration not given; for Enzyme Activity (%): 5 min room temperature, 50 mM HEPES pH 7.4, 1 mM DTT, substrate PAI (N=3); for effect of divalent cation on M-N^α AT activity: 1 mM
Method: N^α -acetyltransferase activity was determined as previously described [Lee et al., J. Biol. Chem. 263:14948-14955 (1988)]. Aliquots of the lysate or chromatographic fractions were added to 1.5 ml Eppendorf tubes containing a reaction mixture of 50 mM HEPES, pH 7.4, 150 mM KCl, 1 mM DTT, 25 μM [^3 H] acetyl coenzyme A (0.5 μCi) and 50 μM synthetic peptide with an adjusted final volume of 100 μl. The assay mixture was incubated at 30° C. for 30 min. The reaction was stopped by adding 17 μl of 0.5M acetic acid and chilled in an ice bath. The reaction samples were filtered through SP membrane discs (Cuno) (previously pre-swollen in 0.5M acetic acid), and then washed three times with 1 ml of 0.5M acetic acid on a Millipore 1225 sampling manifold. The partially dried membranes were placed in scintillation cocktail and counted with a Beckman LS 3801 scintillation counter.
Yeast methionine acetyltransferase was incubated in the presence of various divalent cations at a room temperature for 5 min in 50 mM HEPES, pH 7.4 containing 1 mM DTT. The enzyme activity was determined under standard assay conditions using PAI (N=3), as described above.

[3] = system: methionine N^α -acetyltransferase from S. cerevisiae; assay: Effect of protein modification reagents on enzyme activity; assay type: biochemical, Saccharomyces cerevisiae; settings: for Enzyme Activity (%): 30° C. 15 min, then dialyzed, substrate PAI (N=3)
Method: N^α -acetyltransferase activity was determined as previously described [Lee et al., J. Biol. Chem. 263:14948-14955 (1988)]. Aliquots of the lysate or chromatographic fractions were added to 1.5 ml Eppendorf tubes containing a reaction mixture of 50 mM HEPES, pH 7.4, 150 mM KCl, 1 mM DTT, 25 μM [^3 H] acetyl coenzyme A (0.5 μCi) and 50 μM synthetic peptide with an adjusted final volume of 100 μl. The assay mixture was incubated at 30° C. for 30 min. The reaction was stopped by adding 17 μl of 0.5M acetic acid and chilled in an ice bath. The reaction samples were filtered through SP membrane discs (Cuno) (previously pre-swollen in 0.5M acetic acid), and then washed three times with 1 ml of 0.5M acetic acid on a Millipore 1225 sampling manifold. The partially dried membranes were placed in scintillation cocktail and counted with a Beckman LS 3801 scintillation counter. One unit of activity was defined as the amount of enzyme able to transfer 1 pmol of [^3 H] acetyl group from [^3 H] acetyl coenzyme A to synthetic peptide per min under standard enzyme assay conditions defined above.
In order to determine the possible catalytic role for different types of amino acid residues in the enzyme, various chemical modifications were carried out (Table 10). Yeast methionine acetyltransferase was incubated with each reagent at 30° C. for 15 min, dialyzed against 50 mM HEPES, pH 7.4, 150 mM, 1 mM DTT at 4° C. for 3 to 4 hr. The enzyme activity was determined under standard assay conditions using PAI (N=3), assayed as described above.

| Molecule | Activity (%) (mean activity ± S.D.) N^a -AT [1] | Enzyme Activity (%) ([2]; salt 0.1 mM) | Enzyme Activity (%) ([2]; salt 1 mM) | effect of ion or salt on M-N^α AT activity [2] | also measured |
| --- | --- | --- | --- | --- | --- |
| MIPETQKGVIFYESHGKLEYKDIP (MIPETQKGVIFYESHGKLEYKDIP) | 15 ± 2 | – | – | – | – |
| [Cl][Cd][Cl] [CdCl2] | – | 72 | 0 | – | effect of ion or salt on M-N^α AT activity ([2]; listed as Cd^2+): pronounced and concentration-dependent inhibition; also recorded: also inhibited; Enzyme Activity (%) ([2]; salt 0.01 mM): 103% |
| YIPETQKGVIFYESHGKLEYKDIP (YIPETQKGVIFYESHGKLEYKDIP) | 20 ± 2 | – | – | – | – |
| C[S+](C)Cc1cc([N+](=O)[O-])ccc1O.[Br-] [HNBS(CH3)2 -Br, dimethyl-(2-hydroxy-5-nitrobenzyl)sulfonium bromide] | – | – | – | – | effect of reagent on M-N^α AT activity ([3]; concentration not given): partially inactivated the enzyme; Enzyme Activity (%) ([3]; reagent 1.0 mM): 93%; Enzyme Activity (%) ([3]; reagent 10.0 mM): 62% |
| O=S(=O)([O-])[O-].[Fe+2] [FeSO4] | – | 93 | 40 | pronounced and concentration-dependent inhibition | Enzyme Activity (%) ([2]; salt 0.01 mM): 108% |
| O=C1CCC(=O)N1Br [NBS, N-bromosuccinimide] | – | – | – | – | effect of reagent on M-N^α AT activity ([3]; 0.5 mM): partially inactivated the enzyme; effect of reagent on M-N^α AT activity ([3]; 5 mM): completely inactivated the enzyme; Enzyme Activity (%) ([3]; reagent 0.5 mM): 30%; Enzyme Activity (%) ([3]; reagent 5.0 mM): 0% |
| [Ca+2].[Cl-].[Cl-] [CaCl2] | – | – | 102 | did not affect enzyme activity | effect of divalent cation on M-N^α AT activity [2]: had no effect |
| [Cl][Mn][Cl] [MnCl2] | – | 103 | 98 | did not affect enzyme activity | effect of divalent cation on M-N^α AT activity [2]: had no effect |
| VIPETQKGVIFYESHGKLEYKDIP (VIPETQKGVIFYESHGKLEYKDIP) | 69 ± 4 | – | – | – | – |
| O=S(=O)([O-])[O-].[Mg+2] [MgSO4] | – | 102 | 97 | did not affect enzyme activity | – |
| TIPETQKGVIFYESHGKLEYKDIP (TIPETQKGVIFYESHGKLEYKDIP) | 103 ± 5 | – | – | – | – |
| NO [hydroxylamine] | – | – | – | – | effect of reagent on M-N^α AT activity ([3]; concentration not given): slowly inactivated the enzyme; original enzyme activity recovered after diethyl pyrocarbonate inactivation ([3]; incubation 6 hr at room temperature with […] hydroxylamine, 250000 µM): ~ 50% |
| HIPETQKGVIFYESHGKLEYKDIP (HIPETQKGVIFYESHGKLEYKDIP; also: tritium label) | 19 ± 2 | – | – | – | – |
| PIPETQKGVIFYESHGKLEYKDIP (PIPETQKGVIFYESHGKLEYKDIP) | 70 ± 4 | – | – | – | – |
| [Mg+2] [Mg^2+] | – | – | – | – | effect of divalent cation on M-N^α AT activity [2]: had no effect |
| CC(=O)n1ccnc1 [N-acetylimidazole] | – | – | – | – | effect of reagent on M-N^α AT activity ([3]; concentration not given): without effect; Enzyme Activity (%) ([3]; reagent 1.0 mM): 100%; Enzyme Activity (%) ([3]; reagent 10.0 mM): 93% |
| [Cl-].[Cl-].[Co+2] [CoCl2] | – | 95 | 38 | pronounced and concentration-dependent inhibition | Enzyme Activity (%) ([2]; salt 0.01 mM): 106% |
| FIPETQKGVIFYESHGKLEYKDIP (FIPETQKGVIFYESHGKLEYKDIP) | 9 ± 2 | – | – | – | – |
| [Cl-].[Cl-].[Mg+2] [MgCl2] | – | 105 | 98 | did not affect enzyme activity | – |
| CCOC(=O)OC(=O)OCC [DEPC, diethyl pyrocarbonate] | – | – | – | – | effect of reagent on M-N^α AT activity ([3]; concentration not given): nearly complete inactivation; Enzyme Activity (%) ([3]; reagent 0.05 mM): 59%; Enzyme Activity (%) ([3]; reagent 0.5 mM): 0% |
